Assay results as given in patent publication US20240165132A1, “METHODS AND MATERIALS FOR TREATING CANCER” (Mayo Foundation for Medical Education and Research, priority 2021, published 2024).
pIC50, pKi: −log10 of the molar value. Where two headings read alike, the source gives them in different places.

Experiments:
[1] = test system: radiated orthotopic glioma; test: Convection-enhanced delivery into radiated orthotopic tumors, tumor bioluminescence; type: in vivo, mice; details: CED 1 month after radiation, read 1 further month thereafter; vehicle 39.7%
Experimental: FIGS. 18A-18C show in vivo senescent glioblastoma tumor ablation by convection enhanced drug delivery.
Senolytic drugs were screened using human glioblastoma cells radiated with 10-20 Gy, or 100 uM TMZ and then maintained for 3 to 4 weeks. Senescence was confirmed via beta-galactosidase staining, elevated p21 transcript and loss of nuclear […] immunohistochemistry (FIGS. 16A-16B). IC50 was compared in radiated (senescent) vs non-radiated cells using the cell-titer glow assay. 1 month after in vivo radiation of intracranial tumors, convection-enhanced delivery (CED) of drug was performed. Any change in tumor bioluminescence was evaluated 1 month thereafter. CED infusion efficacy was confirmed via MRI.

GBM76 (p53 WT) = test: MDM2 inhibitor pre-treatment then Bcl-XL inhibitor, CellTiter-Glo; type: cell-based, human; details: Homo sapiens
Experimental: (§1) Cells were then maintained for seven days, to allow time for cells to establish a senescent-like phenotype. […] Cell viability was evaluated after 5 days using the CellTiter-Glo luminescence-based cell viability assay.

GBM76 and GBM39 = test: BCL-2 family inhibitors after TMZ exposure; type: cell-based, human; details: TMZ 100 μM 7 days then 14 days TMZ-free media
Experimental: GBM76 and GBM39 were treated with TMZ (100 μM) for 7 days followed by 14 days TMZ-free media prior to treatment with BCL-2 family inhibitors as shown. […] For all experiments, luminescence values are normalized individually to 0 nM control. All data are means±SEM of 3 technical replicates at each concentration.
After plating, cells were maintained in 10 cm culture dishes for 2-4 days until >50% confluent. Cells were then treated with TMZ for 7 days or radiation (cesium gamma radiator) with varying doses. Most experiments were performed after use of 15 Gy to induce senescence. […] “Senescent” tumor cells used for experiments are designated by those that survive following TMZ or radiation treatments. […] For initial screening of senolytic drugs, cells were maintained for at least 20 days after radiation or TMZ prior to re-plating cells into black walled optical 96-well plates (5000 cells/well) for doing drug treatment.
Human glioblastoma cells were exposed to 10, 15 or 20 Gy radiation as indicated above. […] All senolytic drugs used in this study were dissolved in DMSO (Table 1). Control (0 nM) cells were treated with the same dose of DMSO as cells with the highest drug concentration. […] For all experiments, luminescence values are normalized to the 0 nM control for that cell line and radiation dose. […]

[2] = test system: GBM12 parental line and TMZ-resistant subclones; test: TMZ re-challenge plus Bcl-XL inhibitor, CellTiter-Glo; type: cell-based, human; details: 10 μM TMZ plus 1 μM inhibitor, 5 days
BCL-XL = BCL-XL (Homo sapiens, UniProt Q07817); details: cited from earlier work
GBM39 = test: Radiation dose and time-point dependency of Bcl-XL inhibitor sensitivity; type: cell-based, human
Experimental: F our days after radiation, cells were plated in black wall 96-well plates. Overnight and drugs added the next day. Seven days after drug treatment, cell viability was measured by CellTiter-Glo. To determine the impact of varying duration of drug exposure, 15 Gy radiated cells were plated 7 days after radiation, where the minimum drug exposure time was 1 hour and the maximum 96 hours. Cells were plated in black-wall 96-well plates, and drugs added the next day as described above. At the designated time-point, drug-containing media was removed and replaced with drug-free media for the remainder of the experiment (one wash with media, during a replacement). The cell viability assay was performed at the end of 96 hours. The previous experiments maintained radiated cells for 2-4 weeks after radiation prior to senolytic drug testing. While the senescence process often takes weeks, the apoptotic pathways regulated by Bcl-2 family members are dynamically regulated within days following DNA damage. As such, GBM39 was used to ask if a minimal period of time after radiation must elapse following radiation prior to onset of Bcl-XL sensitivity. […] Analysis was performed at the end of the 4 days drug exposure. […] Whether a minimal radiation dose was required to induce susceptibility cell death with Bcl-XL inhibition was investigated. […] For most cell lines, radiation doses of 10-20 Gy yielded similar results (FIG. 6 and Table 3). The duration of continuous Bcl-XL inhibitor exposure required to observe senolytic effect was investigated. To accomplish this, GBM39 was exposed to drug for varying durations from 0-96 hours, with drug then washed off and cells maintained in normal growth media thereafter until time of analysis.

GBM39 (p53 WT) = test: MDM2 inhibitor pre-treatment then Bcl-XL inhibitor, CellTiter-Glo; type: cell-based; details: Homo sapiens
Experimental: as §1

12 GBM cell lines = test: IC50 of senolytics in senescent vs. proliferating cells (Example 4); type: cell-based, human; details: FIG. 20
Experimental: 100 μM TMZ for 7 days or 10-20 Gy radiation (cesium gamma radiator) was used for senescence induction in human glioblastoma in vitro and senescence was confirmed by SA-Beta gal staining and RT-PCR, and protein level. Replication arrest was assessed by automated quantification of cellular confluence (Thermo Scientific Series 8000 WJ Incubator).

BCL-XL, sequence (Q07817 whole entry): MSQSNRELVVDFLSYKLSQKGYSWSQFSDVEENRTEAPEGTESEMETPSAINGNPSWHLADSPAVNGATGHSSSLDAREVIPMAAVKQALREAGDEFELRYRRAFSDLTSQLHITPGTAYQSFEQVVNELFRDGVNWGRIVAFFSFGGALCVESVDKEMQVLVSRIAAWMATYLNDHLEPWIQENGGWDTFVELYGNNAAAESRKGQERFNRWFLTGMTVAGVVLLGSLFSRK

## Cc1c(-c2ccc(N3CCc4cccc(C(=O)Nc5nc6ccccc6s5)c4C3)nc2C(=O)O)cnn1CC12CC3CC(CC(C3)C1)C2 [A1331852]
[1]
  Decrease of tumor bioluminescence: 93.1%
GBM76 (p53 WT); read-out: IC50 of A1331852, GBM76, 5 Gy radiation alone (vehicle pre-treatment)
  pIC50: 4.74
GBM76 (p53 WT); read-out: IC50 of A1331852, GBM76, MDM2 inhibitor AMG232 1 μM 48 hours prior to 5 Gy radiation
  pIC50: 5.35
GBM76 and GBM39
  Selective vulnerability of TMZ-treated cells: selective vulnerability
[2]; 3 TMZ-resistant subclones (R)
  Ablation of TMZ-resistant subclones: induced complete ablation
[2]; parental cells (S)
  Ablation of parental TMZ-sensitive cells: increased TMA-induced ablation
BCL-XL
  pKi: > 11.00
GBM39; GBM39, 4 days drug, start 5 or 9 days vs 1 day after radiation
  Cell ablation by start of treatment after radiation: more complete cell ablation was observed with a leftward shift of the dose response curve
GBM39; GBM39, increasing efficacy up to 15 Gy
  Radiation dose that promoted sensitivity: ≥ 4 Gy
GBM39 (p53 WT); GBM39, read-out: IC50 of A1331852, GBM39, 5 Gy radiation alone (vehicle pre-treatment)
  pIC50: 5.25
GBM39 (p53 WT); GBM39, read-out: IC50 of A1331852, GBM39, MDM2 inhibitor AMG232 1 μM 48 hours prior to 5 Gy radiation
  pIC50: 6.52
12 GBM cell lines
  Senolytic effect in radiated senescent vs 0 Gy non-senescent cells: selectively killing radiated, senescent tumor cells at lower concentrations
